Experiment [1] concerns GluR6 receptor. As to the kind of experiment: Complex olfactory discrimination learning in 4-arm maze after injection into the brain ventricles. The conditions noted are these: rats; 500 nmol into the brain ventricles, evaluation 10 min after daily injection; saline injected rats 8 days; p<0.001. It counts as in vivo. How it is done: Olfactory discrimination protocol was performed in a 4-arm radial maze, with odors that are frequently used in the food industry (FIG. 1A). FIG. 1A is a schematic description of the 4-arm maze: an electronic ‘start’ command opens randomly two out of eight valves (V), releasing a positive-cue odor (P) into one of the arms and a negative-cue odor (N) into another. Eight seconds later, the two corresponding guillotine doors (D) are lifted to allow the rat to enter the selected arms. Upon reaching the far end of an arm (90 cm long), the rat body interrupts an infrared beam (I, arrow) and a drop of drinking water is released from a water hose (W) into a small drinking well (for a trained rat—only if the arm contains the positive-cue odor, for pseudo-trained rat—randomly). A trial ends when the rat interrupts a beam, or in 10 seconds, if no beam was interrupted. A fan is operated for 15 seconds between trials, to remove odors.
Olfactory training included 20 trials per day. […] A pseudo-trained group of age-matched rats was exposed to the same protocol of training, but with random water rewarding. An age-matched naive group of rats was water-deprived, without exposure to training. A day following memorization of a pair of odors by the rats in the trained group, both trained and pseudo trained groups were trained with a new pair of odors. […]

For experiment [2], the system named is kainate receptors. As to the kind of experiment: Post-burst AHP amplitude in pyramidal neurons of brain slices after brief kainate exposure. Type of experiment: cell-based, rat. To be noted: for averaged AHP amplitude: after ten minutes long exposure to kainate, p<0.05. How it is done:
brain slices of the pirofm cortex hippocampus are prepared and recordings were obtained from pyramidal neurons, with sharp electrodes for current clamp studies of AHP and neuronal adaptation. Data was collected from at least 20 neurons taken for 6 rats or more in each experimental group.
for after-hyper-polarization (AHP) measurement, neurons were depolarized in current clamp mode to Vm of −60 mV with DC current injection, and 100 ms long depolarizing current steps were applied with intensity sufficient to evoke trains of 6 action potentials. AHP amplitude was measured from baseline to the peak of the hyperpolarizing voltage deflection that follows the spike train (FIGS. 2A1 and 2A2). The AHP value was determined from the averaged amplitude in 4-5 consecutive traces, evoked at intervals of 10 sec. FIGS. 2A1 and 2A2 show the same trace on different time scales. Neurons were held at membrane potential of −60 mV and post-burst AHP was generated by 100 ms depolarizing current step injection via the recording electrode, with intensity sufficient to generate a train of 6 action potentials.
These experiments included a brief, ten minutes long, exposure to kainate. […] This decrease outlasted while kainate was present and was always apparent for the total length to kainate exposure (FIG. 8A).
The post burst AHP in neurons from trained rats was not affected by exposure to kainate. The averaged AHP in kainate induced, trained neurons was 6.63±2.4 (n=7).

Experiment [3] has as its system GluR6. It counts as cell-based, mice. The conditions noted are these: 1 sec depolarizing pulse, Ithx2, versus control. The method, then: For neuronal adaptation measurements, prolonged (1 sec) depolarizing current steps are applied to the neurons via the recording electrode at Vrest, with stimulus intensity of twice IThreshold (FIG. 2B). The firing frequency was measured between each of two spikes in the train, and values were normalized to the initial frequency at which the first two spikes are generated. FIG. 2B is a graph depicting an example for neuronal firing adaptation in layer II pyramidal cell.
FIG. 10B is a bar graph depicting the number of spikes following kainate application in GluR6+/+ and GluR6−/− neurons, as opposed to control, (n) depicts the number of neurons.

Read-outs that look alike come from different tables or passages of the source.

With `Cc1onc(O)c1CCC(N)C(=O)O` (racemic) [homo-AMPA, (RS)-2-amino-4-(3-hydroxy-5-methylisoxazol-4-yl)butyric acid], the “averaged number of training days required for learning completion” value in experiment [1] was “less than five”.
Consider `C=C(C)[C@H]1CN[C@H](C(=O)O)[C@H]1CC(=O)O` [kainate, kainic acid], for which the “averaged AHP amplitude” value in experiment [2] (neurons from naive animals, n=16) came to 6.0±2.5; in experiment [2] (neurons from pseudo trained rats, n=7) it was 6.63 ± 2.4. For the same molecule, the “effect on post burst AHP” value in experiment [2] (neurons from trained rats, exposure to kainate) is recorded as “not affected”. Besides, in experiment [2] (neurons from trained rats, kainate induced, n=7), the “averaged AHP” value is 6.63±2.4. Moreover, the “number of action potentials (spikes) following kainate application” value is “no effect” in experiment [3] (neurons from GluR6 knockout (GluR6-/-) mice) and “doubles” in experiment [3] (neurons of wild type (GluR6+/+) mice).

Values taken from US9682067B2, “Methods of improving cognitive function” (priority 2010, dated 2017).
